In patent US20240277695A1, “FOXO INHIBITORS FOR USE IN THE TREATMENT OF DISEASES CAUSED BY ABNORMAL PROCESSING OF TDP-43 AND/OR FUS PROTEINS” (Administración General de la Comunidad Autónoma de Euskadi, priority 2020, published 2024):
“Also recorded” adds a separate entry of the source.

What was measured:
[1] = test system: TDP-43 or FUS-silenced human immortalized myoblasts (cell line 8220); test: Metabolic flux analysis (ECAR/OCR) in TDP-43 or FUS-silenced myoblasts; type: cell-based; conditions: 30 nM
Excerpt: The translocation of TDP-43 to cytoplasm is involved in myoblast differentiation and myotube generation (see reference 14). […] Thus, given the potential implication of TDP-43 and FUS in myogenesis, we modelled the loss-of-function of these genes in the human immortalized myoblast cell line 8220 by treating these cells with shRNA-expressing lentiviral particles for TDP-43 or FUS, and further analyzed any change on cell morphology, growth and myogenic capacity (FIG. 1D).
Molecular signaling factors and reprogramming of energy metabolism are considered crucial regulators of myogenesis during adult muscle regeneration. Since TDP-43 controls skeletal muscle glucose homeostasis, we wanted to investigate whether myogenic defects induced by loss of TDP-43, and in extension of FUS, may be mediated by abnormalities of glucose metabolism. Regarding the latest, various studies conducted in Drosophila, zebrafish and mouse myoblasts have highlighted glucose metabolism as part of the core myogenic program because of its ability to provide both the rapid source of energy and the building blocks (amino acids and nucleotides) that are required for biomass production during the formation of syncytial muscles. […]

[2] = test system: TDP-43 or FUS-silenced human immortalized myoblasts (cell line 8220); test: Myogenic differentiation (MYHC-positive myotubes, differentiation index) of silenced myoblasts; type: cell-based; conditions: 30 nM
Excerpt: We then studied the effect of gene silencing on the myogenic process. Myogenesis was first induced by an established protocol consisting on medium replacement, in which myoblasts were exposed to differentiation medium two days after infection with lentiviral particles. However, TDP-43 and FUS knockdown myoblasts were not able to survive to the differentiating challenge. Then, we switched to a more physiologically-relevant myogenic scenario that consists on allowing spontaneous differentiation and fusion when myoblasts reach 100% confluence. Lentiviral particles of scramble shRNA, shTDP-43 or shFUS were added to the medium when […] myoblasts were at 30-40% confluence (FIG. 1D).
Myoblasts treated with control shRNA differentiated and formed MYHC-positive myotubes 2 days after reaching 100% confluence (FIG. 1I). However, TDP-43 and FUS knockdown affected the natural capacity of cultured myoblasts to fuse and form myotubes: shTDP-43-treated myoblasts remained undifferentiated for at least 2 days after reaching 100% confluence, and shFUS-treated myoblasts formed fewer myotubes (FIG. 1I). […] We then analyzed levels of MYOD and MYOG (Myogenin), two transcription factors that are required for myoblast commitment, differentiation and fusion, respectively.
We next explored the consequences of pharmacological or genetic inhibition of FoxO on metabolism and myogenesis in TDP-43 and FUS-silenced myoblasts. We treated all the different models of myoblasts with the compound AS1842856 at 30 nM during proliferation and let them differentiate, adding the compound at the same concentration every 2 days for 8 days. At the selected concentration, this compound binds selectively to the dephosphorylated FoxO1, and to less extent dephosphorylated FoxO3, interfering with DNA interaction and thereby resulting in inhibition of FoxO transactivation.
In addition, treatment with the AS1842856 inhibitor modifies the expression of some of the FoxO-regulated genes that are crucial for proper myogenic differentiation.

[3] = test system: Drosophila with motor neuron-specific (OK6 promoter) Tbph silencing; test: Locomotor activity (climbing) assay in motor neuron-specific Tbph/Caz knockdown flies; type: in vivo, Drosophila melanogaster; conditions: 30 μM, 20 days-old flies
Excerpt: FIG. 9. FOXO1inh rescues (AS1842856) impaired climbing capacity induced by motor neuron-specific knockdown of ALS-causing ortholog genes in Drosophila melanogaster. Represented two different models of Tbph silence (silencing two different locus of Tbph gene) and one Caz (FUS ortholog) A) Locomotor activity of motor neuron specific (OK6 promoter) Tbph silencing Drosophila melanogaster using iTbph(p(KK08354)) plasmid. Generated genotypes; UAS-Dicer2-+-OK6-GAL4 (control) and UAS-Dicer2-iTbph^p(KK08354)-OK6-GAL4 (iTbph^p(KK08354)). B) Locomotor activity of motor neuron specific (OK6 promoter) Tbph silencing Drosophila melanogaster using iTbph(attP40) plasmid.; UAS-Dicer2-+-OK6-GAL4 (control) and UAS-Dicer2-iTbph^(attP40)-OK6-GAL4 (iTbph^(attP40)). C) Locomotor activity of motor neuron specific (OK6 promoter) Tbph silencing Drosophila melanogaster using iCaz plasmid.; UAS-Dicer2-+-OK6-GAL4 (control) and UAS-Dicer2-iCaz-OK6-GAL4 (iCaz). Assays were performed at 20 days-old flies and repeated 5 times each tube (5 flies/tube). Data are expressed as the percentage of flies passing for each group.
Two-way ANOVA was performed together Bonferroni post-hoc multiple comparison (*p<0.05; **p<0.01; ***p<0.001) or T-test for two groups comparisons (*p<0.05; **p<0.01; ***p<0.001). Values are expressed as mean+SD.
One of the most important features of ALS is motor neuron degeneration. […]

## CCn1cc(C(=O)O)c(=O)c2c(N)c(F)c(NC3CCCCC3)cc21 [AS1842856]
[1]; proliferating myoblasts silenced for either TDP-43 or FUS
  repressed glycolytic traits (glucose- and oligomycin-stimulated ECAR): significant recovery
[1]; shTDP-43 and shFUS-treated myoblasts
  mitochondrial ATP production: enhanced mitochondrial ATP production; also recorded: improved the mitochondrial ATP production
[2]; FUS-silenced myoblasts
  myogenic capacity (MYHC-positive myotubes, differentiation index): improved the myogenic capacity
[2]; TDP-43 silenced myoblasts
  myogenic capacity (MYHC-positive myotubes, differentiation index): rescued the myogenic arrest
[2]; control myoblasts
  myogenic capacity (MYHC-positive myotubes, differentiation index): little effects
[3]
  locomotor impairments in climbing assay: rescues; also recorded: fully rescue locomotor impairments
